According to patent US10189845B2, “4,6-substituted-pyrazolo[1,5-a]pyrazines as janus kinase inhibitors” (ARRAY BIOPHARMA INC., priority 2014, dated 2019):
pIC50: −log10 of the molar value. Counter-ions that a name gives are not always drawn. Like-named read-outs stand apart in the source and are kept apart here.

Assays:
Assay type in all cases: biochemical
[1] = biological target: JAK3 (Homo sapiens (Human), UniProt P52333); experiment: JAK3 Inhibition Assay (Example D, Omnia kinase fluorescence peptide substrate assay)
Summary of the method: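 Omnia Sox-peptide kinetic read (ex 360 nm, em 485 nm, every 50 s over 45 min) tracked phosphorylation of 10 μM Y7 peptide by 2 nM recombinant JAK3 at 1 mM ATP. Buffer: 25 mM HEPES pH 7.4, 10 mM MgCl2, 0.01% Triton X-100, 1 mM DTT, with 2% DMSO final.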

[2] = biological target: Human Tyk2 kinase domain (Homo sapiens (Human), UniProt P29597); experiment: Tyk2 Inhibition Assay (Example A, Omnia kinase fluorescence peptide substrate assay); conditions: TYK2 Enzyme IC50 1 mM ATP, averaged IC50 ranges
Summary of the method: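 IC50 values come from a 4-parameter logistic fit of percent-of-control data, with compounds at 2% final DMSO. Reactions held 1 nM His-tag-cleaved Tyk2 (aa 886–1187), 8 μM Omnia Y12 peptide and 1 mM ATP in pH 7.4 HEPES buffer with 10 mM MgCl2, Triton X-100 and DTT. Sox fluorescence (360/485 nm) was monitored kinetically over 45 min.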

[3] = biological target: JAK1 (Homo sapiens (Human), UniProt P23458); experiment: JAK1 Inhibition Assay (Example B, Omnia kinase fluorescence peptide substrate assay)
Summary of the method: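 Kinetic fluorescence read (360 nm excitation, 485 nm emission, every 50 s over 45 min) of Omnia Y12 peptide (8 μM) phosphorylation by 12.5 nM human JAK1 at 1 mM ATP. Buffer: HEPES pH 7.4, MgCl2, Triton X-100, DTT; 2% DMSO. IC50 = concentration giving 50 POC on logistic curve.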

[4] = biological target: JAK2 (Homo sapiens (Human), UniProt O60674); experiment: JAK2 Inhibition Assay (Example C, Omnia kinase fluorescence peptide substrate assay); conditions: JAK2 Enzyme IC50 1 mM ATP, averaged IC50 ranges
Summary of the method: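 Kinetic fluorescence read of Omnia Y7 peptide (10 μM) phosphorylation, ex 360/em 485 nm every 50 s over 45 min, by 4 nM JAK2 at 1 mM ATP. Buffer 25 mM HEPES pH 7.4, 10 mM MgCl2, 0.01% Triton X-100, 1 mM DTT; final DMSO 2%. Percent-of-control values fitted by 4-parameter logistic for IC50.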

[5] = JAK1 Enzyme IC50 1 mM ATP, 1 mM ATP, averaged IC50 ranges

Sequence of JAK3 (P52333 whole entry): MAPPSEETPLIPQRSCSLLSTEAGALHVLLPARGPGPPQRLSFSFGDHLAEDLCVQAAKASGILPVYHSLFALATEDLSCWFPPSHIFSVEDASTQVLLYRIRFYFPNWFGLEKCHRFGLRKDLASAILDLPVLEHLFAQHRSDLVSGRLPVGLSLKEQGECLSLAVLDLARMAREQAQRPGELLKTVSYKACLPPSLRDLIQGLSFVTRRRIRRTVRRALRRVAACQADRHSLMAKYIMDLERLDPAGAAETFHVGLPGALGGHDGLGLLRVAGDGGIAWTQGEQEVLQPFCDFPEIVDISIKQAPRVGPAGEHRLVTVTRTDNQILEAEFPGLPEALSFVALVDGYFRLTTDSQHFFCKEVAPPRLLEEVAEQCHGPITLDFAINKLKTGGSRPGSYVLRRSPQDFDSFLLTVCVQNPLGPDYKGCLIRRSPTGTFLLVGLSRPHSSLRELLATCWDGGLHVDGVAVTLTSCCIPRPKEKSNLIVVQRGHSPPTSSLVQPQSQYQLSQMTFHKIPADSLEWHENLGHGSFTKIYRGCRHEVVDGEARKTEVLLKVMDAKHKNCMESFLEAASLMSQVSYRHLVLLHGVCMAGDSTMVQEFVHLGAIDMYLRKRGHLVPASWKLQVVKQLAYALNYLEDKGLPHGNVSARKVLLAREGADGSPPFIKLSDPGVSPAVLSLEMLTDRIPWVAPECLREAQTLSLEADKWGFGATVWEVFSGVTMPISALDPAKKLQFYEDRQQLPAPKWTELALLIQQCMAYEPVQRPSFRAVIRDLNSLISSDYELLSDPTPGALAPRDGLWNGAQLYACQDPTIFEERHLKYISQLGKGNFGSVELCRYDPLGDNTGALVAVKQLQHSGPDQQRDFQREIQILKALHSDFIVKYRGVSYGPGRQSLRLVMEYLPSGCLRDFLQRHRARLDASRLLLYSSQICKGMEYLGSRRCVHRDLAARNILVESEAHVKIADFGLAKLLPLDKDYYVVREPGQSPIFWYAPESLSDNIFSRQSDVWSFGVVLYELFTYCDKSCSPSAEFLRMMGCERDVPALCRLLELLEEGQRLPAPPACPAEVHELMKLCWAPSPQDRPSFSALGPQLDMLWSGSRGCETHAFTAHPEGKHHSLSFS
Sequence of Human Tyk2 kinase domain (P29597 886-1187): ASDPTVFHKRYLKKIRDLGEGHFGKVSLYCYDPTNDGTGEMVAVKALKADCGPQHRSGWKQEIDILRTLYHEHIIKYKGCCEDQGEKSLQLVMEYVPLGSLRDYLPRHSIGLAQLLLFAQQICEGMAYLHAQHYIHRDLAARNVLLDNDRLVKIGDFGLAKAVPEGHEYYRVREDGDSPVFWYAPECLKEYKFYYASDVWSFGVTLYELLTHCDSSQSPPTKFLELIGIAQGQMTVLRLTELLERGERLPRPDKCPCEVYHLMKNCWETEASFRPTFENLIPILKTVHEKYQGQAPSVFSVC
Sequence of JAK2 (O60674 whole entry): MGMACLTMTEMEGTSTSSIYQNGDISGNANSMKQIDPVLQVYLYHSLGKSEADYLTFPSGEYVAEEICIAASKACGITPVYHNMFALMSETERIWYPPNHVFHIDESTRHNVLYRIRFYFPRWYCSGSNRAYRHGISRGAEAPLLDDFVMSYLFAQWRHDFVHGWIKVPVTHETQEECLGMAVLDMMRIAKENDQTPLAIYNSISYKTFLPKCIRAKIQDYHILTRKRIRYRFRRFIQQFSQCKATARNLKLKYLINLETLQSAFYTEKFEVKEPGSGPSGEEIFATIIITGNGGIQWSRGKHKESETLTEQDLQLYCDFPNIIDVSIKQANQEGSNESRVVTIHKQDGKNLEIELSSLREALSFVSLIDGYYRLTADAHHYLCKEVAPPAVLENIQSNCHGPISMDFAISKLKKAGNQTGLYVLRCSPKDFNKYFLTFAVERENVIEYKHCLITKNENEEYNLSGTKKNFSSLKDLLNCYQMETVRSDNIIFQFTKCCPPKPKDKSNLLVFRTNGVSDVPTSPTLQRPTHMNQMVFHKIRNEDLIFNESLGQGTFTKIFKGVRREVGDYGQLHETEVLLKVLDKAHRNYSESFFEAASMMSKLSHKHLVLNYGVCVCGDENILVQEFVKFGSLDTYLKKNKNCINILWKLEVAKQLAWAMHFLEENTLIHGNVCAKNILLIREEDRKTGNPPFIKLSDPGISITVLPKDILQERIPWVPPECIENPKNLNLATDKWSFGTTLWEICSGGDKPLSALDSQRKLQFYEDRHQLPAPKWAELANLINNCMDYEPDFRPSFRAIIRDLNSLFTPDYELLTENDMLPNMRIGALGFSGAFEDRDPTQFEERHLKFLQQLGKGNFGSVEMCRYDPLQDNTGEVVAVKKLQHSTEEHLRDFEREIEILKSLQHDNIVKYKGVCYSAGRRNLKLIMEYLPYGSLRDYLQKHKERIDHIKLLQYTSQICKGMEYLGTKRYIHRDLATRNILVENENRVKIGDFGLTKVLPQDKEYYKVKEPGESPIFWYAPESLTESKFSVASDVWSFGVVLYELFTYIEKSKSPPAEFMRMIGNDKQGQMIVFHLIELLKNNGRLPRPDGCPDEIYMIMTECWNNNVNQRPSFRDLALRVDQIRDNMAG
Sequence of JAK1 (P23458 whole entry): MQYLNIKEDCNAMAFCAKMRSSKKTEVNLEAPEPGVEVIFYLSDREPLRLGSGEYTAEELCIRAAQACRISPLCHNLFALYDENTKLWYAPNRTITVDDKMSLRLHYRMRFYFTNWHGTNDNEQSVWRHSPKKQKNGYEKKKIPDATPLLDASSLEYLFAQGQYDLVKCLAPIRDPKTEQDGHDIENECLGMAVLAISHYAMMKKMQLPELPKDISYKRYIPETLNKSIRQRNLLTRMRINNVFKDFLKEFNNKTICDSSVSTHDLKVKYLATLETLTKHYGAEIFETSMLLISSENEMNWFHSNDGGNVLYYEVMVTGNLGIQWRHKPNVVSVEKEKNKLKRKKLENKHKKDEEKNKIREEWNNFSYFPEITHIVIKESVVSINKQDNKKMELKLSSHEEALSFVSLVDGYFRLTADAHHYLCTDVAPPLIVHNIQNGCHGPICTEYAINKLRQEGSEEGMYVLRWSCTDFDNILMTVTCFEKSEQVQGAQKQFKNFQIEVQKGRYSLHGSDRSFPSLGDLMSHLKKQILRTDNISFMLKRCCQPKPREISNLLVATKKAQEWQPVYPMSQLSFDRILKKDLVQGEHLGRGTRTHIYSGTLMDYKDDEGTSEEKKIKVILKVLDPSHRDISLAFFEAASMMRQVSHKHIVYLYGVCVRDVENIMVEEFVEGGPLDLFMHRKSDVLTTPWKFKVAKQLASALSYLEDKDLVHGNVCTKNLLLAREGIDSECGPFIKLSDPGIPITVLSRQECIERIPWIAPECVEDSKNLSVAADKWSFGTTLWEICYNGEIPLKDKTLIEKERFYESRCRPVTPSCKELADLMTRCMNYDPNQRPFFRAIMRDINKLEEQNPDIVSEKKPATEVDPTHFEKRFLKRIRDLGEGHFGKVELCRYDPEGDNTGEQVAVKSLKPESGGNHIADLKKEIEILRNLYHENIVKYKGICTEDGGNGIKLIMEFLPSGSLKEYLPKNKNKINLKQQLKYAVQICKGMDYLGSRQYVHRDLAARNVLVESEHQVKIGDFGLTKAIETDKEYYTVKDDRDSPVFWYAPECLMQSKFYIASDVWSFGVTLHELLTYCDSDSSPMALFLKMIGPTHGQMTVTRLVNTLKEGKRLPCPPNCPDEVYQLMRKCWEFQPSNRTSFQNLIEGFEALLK

| pIC50 [1] | pIC50 [2] | pIC50 [3, 5] | pIC50 [4] | pIC50 [3] | SMILES |
| --- | --- | --- | --- | --- | --- |
| 5.00 to 6.00 | 6.00 to 7.00 |  | 5.00 to 6.00 | 5.00 to 6.00 | CCC(CC)n1cc(-c2nc(-c3cnn(C[C@@H](C)O)c3)cn3nccc23)cn1 [Example 109, (R)-1-(4-(4-(1-(pentan-3-yl)-1H-pyrazol-4-yl)pyrazolo[1,5-a]pyrazin-6-yl)-1H-pyrazol-1-yl)propan-2-ol] |
| 5.00 to 6.00 | 7.00 to 8.00 |  | 7.00 to 8.00 | 6.00 to 7.00 | CCC(CC)n1cc(-c2nc(-c3cnn(C[C@H](C)O)c3)cn3nccc23)cn1 [Example 110, (S)-1-(4-(4-(1-(pentan-3-yl)-1H-pyrazol-4-yl)pyrazolo[1,5-a]pyrazin-6-yl)-1H-pyrazol-1-yl)propan-2-ol] |
| 5.00 to 6.00 | 6.00 to 7.00 |  | 6.00 to 7.00 | 5.00 to 6.00 | CCC(CC)n1cc(-c2nc(-c3cnn(CC(O)C(C)(C)C)c3)cn3nccc23)cn1 (centres unmarked) [Example 112, 3,3-dimethyl-1-(4-(4-(1-(pentan-3-yl)-1H-pyrazol-4-yl)pyrazolo[1,5-a]pyrazin-6-yl)-1H-pyrazol-1-yl)butan-2-ol] |
| 5.00 to 6.00 | 6.00 to 7.00 |  | 6.00 to 7.00 | 6.00 to 7.00 | CCC(CC)n1cc(-c2nc(-c3cnn(CC(C)(C)O)c3)cn3nccc23)cn1 [Example 117, 2-methyl-1-(4-(4-(1-(pentan-3-yl)-1H-pyrazol-4-yl)pyrazolo[1,5-a]pyrazin-6-yl)-1H-pyrazol-1-yl)propan-2-ol] |
| 5.00 to 6.00 | 7.00 to 8.00 |  | 7.00 to 8.00 | 6.00 to 7.00 | CCC(CC)n1cc(-c2nc(-c3cnn(C(C)(C)CO)c3)cn3nccc23)cn1 [Example 124, 2-methyl-2-(4-(4-(1-(pentan-3-yl)-1H-pyrazol-4-yl)pyrazolo[1,5-a]pyrazin-6-yl)-1H-pyrazol-1-yl)propan-1-ol] |
| 5.00 to 6.00 | 7.00 to 8.00 | 5.00 to 6.00 | 6.00 to 7.00 |  | CCC(CC)n1cc(-c2nc(-c3cnn([C@@H](C)CO)c3)cn3nccc23)cn1 [Example 125, (S)-2-(4-(4-(1-(pentan-3-yl)-1H-pyrazol-4-yl)pyrazolo[1,5-a]pyrazin-6-yl)-1H-pyrazol-1-yl)propan-1-ol] |
| 5.00 to 6.00 | 7.00 to 8.00 |  | 7.00 to 8.00 | 5.00 to 6.00 | CCC(CC)n1cc(-c2nc(-c3cnn(C[C@@H](N)CO)c3)cn3nccc23)cn1 [Example 130, (R)-2-amino-3-(4-(4-(1-(pentan-3-yl)-1H-pyrazol-4-yl)pyrazolo[1,5-a]pyrazin-6-yl)-1H-pyrazol-1-yl)propan-1-ol] |

The remaining lines, values behind:

| SMILES | pIC50 [1] | pIC50 [2] | pIC50 [3, 5] | pIC50 [4] | pIC50 [3] |
| --- | --- | --- | --- | --- | --- |
| CCC(CC)n1cc(-c2nc(-c3cnn(C[C@H](O)CN4CCCC4)c3)cn3nccc23)cn1 [Example 105, (R)-1-(4-(4-(1-(pentan-3-yl)-1H-pyrazol-4-yl)pyrazolo[1,5-a]pyrazin-6-yl)-1H-pyrazol-1-yl)-3-(pyrrolidin-1-yl)propan-2-ol] | 5.00 to 6.00 | 6.00 to 7.00 | 5.00 to 6.00 | 6.00 to 7.00 |  |
| CCC(CC)n1cc(-c2nc(-c3cnn(C[C@@H](O)CN4CCCC4)c3)cn3nccc23)cn1 [Example 106, (S)-1-(4-(4-(1-(pentan-3-yl)-1H-pyrazol-4-yl)pyrazolo[1,5-a]pyrazin-6-yl)-1H-pyrazol-1-yl)-3-(pyrrolidin-1-yl)propan-2-ol] | 5.00 to 6.00 | 6.00 to 7.00 | 5.00 to 6.00 | 6.00 to 7.00 |  |
| CCC(CC)n1cc(-c2nc(-c3cnn(C[C@@H](O)COC)c3)cn3nccc23)cn1 [Example 107, (R)-1-methoxy-3-(4-(4-(1-(pentan-3-yl)-1H-pyrazol-4-yl)pyrazolo[1,5-a]pyrazin-6-yl)-1H-pyrazol-1-yl)propan-2-ol] | 5.00 to 6.00 | 7.00 to 8.00 |  | 7.00 to 8.00 | 6.00 to 7.00 |
| CCC(CC)n1cc(-c2nc(-c3cnn(C[C@H](O)COC)c3)cn3nccc23)cn1 [Example 108, (S)-1-methoxy-3-(4-(4-(1-(pentan-3-yl)-1H-pyrazol-4-yl)pyrazolo[1,5-a]pyrazin-6-yl)-1H-pyrazol-1-yl)propan-2-ol] | 5.00 to 6.00 | 7.00 to 8.00 |  | 7.00 to 8.00 | 6.00 to 7.00 |
| CCC(CC)n1cc(-c2nc(-c3cnn(CC(O)CC(F)(F)F)c3)cn3nccc23)cn1 (centres unmarked) [Example 111, 4,4,4-trifluoro-1-(4-(4-(1-(pentan-3-yl)-1H-pyrazol-4-yl)pyrazolo[1,5-a]pyrazin-6-yl)-1H-pyrazol-1-yl)butan-2-ol] | 5.00 to 6.00 | 7.00 to 8.00 |  | 7.00 to 8.00 | 6.00 to 7.00 |
| CCC(CC)n1cc(-c2nc(-c3cnn(CC(O)C(C)C)c3)cn3nccc23)cn1 (centres unmarked) [Example 113, 3-methyl-1-(4-(4-(1-(pentan-3-yl)-1H-pyrazol-4-yl)pyrazolo[1,5-a]pyrazin-6-yl)-1H-pyrazol-1-yl)butan-2-ol] | 5.00 to 6.00 | 7.00 to 8.00 |  | 6.00 to 7.00 | 5.00 to 6.00 |
| CCC(CC)n1cc(-c2nc(-c3cnn(C[C@@H](O)CC)c3)cn3nccc23)cn1 [Example 114, (S)-1-(4-(4-(1-(pentan-3-yl)-1H-pyrazol-4-yl)pyrazolo[1,5-a]pyrazin-6-yl)-1H-pyrazol-1-yl)butan-2-ol] | 5.00 to 6.00 | 7.00 to 8.00 |  | 7.00 to 8.00 | 6.00 to 7.00 |
| CCC(CC)n1cc(-c2nc(-c3cnn(C[C@H](O)CC)c3)cn3nccc23)cn1 [Example 115, (R)-1-(4-(4-(1-(pentan-3-yl)-1H-pyrazol-4-yl)pyrazolo[1,5-a]pyrazin-6-yl)-1H-pyrazol-1-yl)butan-2-ol] | 5.00 to 6.00 | 7.00 to 8.00 |  | 7.00 to 8.00 | 6.00 to 7.00 |
| CCC(CC)n1cc(-c2nc(-c3cnn(CC4(O)CCOCC4)c3)cn3nccc23)cn1 [Example 116, 4-((4-(4-(1-(pentan-3-yl)-1H-pyrazol-4-yl)pyrazolo[1,5-a]pyrazin-6-yl)-1H-pyrazol-1-yl)methyl)tetrahydro-2H-pyran-4-ol] | 5.00 to 6.00 | 7.00 to 8.00 | 5.00 to 6.00 | 7.00 to 8.00 |  |
| CCC(CC)n1cc(-c2nc(-c3cnn([C@H]4C[C@@H](O)C4)c3)cn3nccc23)cn1 [Example 119, cis-3-(4-(4-(1-(pentan-3-yl)-1H-pyrazol-4-yl)pyrazolo[1,5-a]pyrazin-6-yl)-1H-pyrazol-1-yl)cyclobutanol] | 5.00 to 6.00 | > 8.00 | 6.00 to 7.00 | 7.00 to 8.00 |  |
| CCC(CC)n1cc(-c2nc(-c3cnn(C[C@H]4C[C@@H](O)C4)c3)cn3nccc23)cn1 [Example 120, (1s,3s)-3-((4-(4-(1-(pentan-3-yl)-1H-pyrazol-4-yl)pyrazolo[1,5-a]pyrazin-6-yl)-1H-pyrazol-1-yl)methyl)cyclobutanol] | 5.00 to 6.00 | 7.00 to 8.00 |  | 7.00 to 8.00 | 6.00 to 7.00 |
| CCC(CC)n1cc(-c2nc(-c3cnn(C[C@@H]4CNCCO4)c3)cn3nccc23)cn1 [Example 127, (S)-2-((4-(4-(1-(pentan-3-yl)-1H-pyrazol-4-yl)pyrazolo[1,5-a]pyrazin-6-yl)-1H-pyrazol-1-yl)methyl)morpholine trifluoroacetic acid] | 5.00 to 6.00 | 6.00 to 7.00 |  | 6.00 to 7.00 | 5.00 to 6.00 |
| CCC(CC)n1cc(-c2nc(-c3cnn(C[C@@H](CO)N(C)C)c3)cn3nccc23)cn1 [Example 129, (S)-2-(dimethylamino)-3-(4-(4-(1-(pentan-3-yl)-1H-pyrazol-4-yl)pyrazolo[1,5-a]pyrazin-6-yl)-1H-pyrazol-1-yl)propan-1-ol] | 5.00 to 6.00 | 7.00 to 8.00 | 6.00 to 7.00 | 7.00 to 8.00 |  |
| CCC(CC)n1cc(-c2nc(-c3cnn(C[C@H](CO)N(C)C)c3)cn3nccc23)cn1 [Example 131, (R)-2-(dimethylamino)-3-(4-(4-(1-(pentan-3-yl)-1H-pyrazol-4-yl)pyrazolo[1,5-a]pyrazin-6-yl)-1H-pyrazol-1-yl)propan-1-ol] | 5.00 to 6.00 | 7.00 to 8.00 | 6.00 to 7.00 | 7.00 to 8.00 |  |
| CCC(CC)n1cc(-c2nc(-c3cnn(CCNC4CC4)c3)cn3nccc23)cn1 [Example 134, N-(2-(4-(4-(1-(pentan-3-yl)-1H-pyrazol-4-yl)pyrazolo[1,5-a]pyrazin-6-yl)-1H-pyrazol-1-yl)ethyl)cyclopropanamine trifluoroacetate] | 5.00 to 6.00 | 7.00 to 8.00 |  | 7.00 to 8.00 | 7.00 to 8.00 |
| CCC(CC)n1cc(-c2nc(-c3cnn(CCN4CCCC4)c3)cn3nccc23)cn1 [Example 135, 4-(1-(pentan-3-yl)-1H-pyrazol-4-yl)-6-(1-(2-(pyrrolidin-1-yl)ethyl)-1H-pyrazol-4-yl)pyrazolo[1,5-a]pyrazine] | 5.00 to 6.00 | 7.00 to 8.00 |  | 7.00 to 8.00 | 5.00 to 6.00 |
